One experiment concerns the target human PRMT8 (Homo sapiens, UniProt Q9NR22). The experiment in a line: biochemical. From the text:
General Materials. S-adenosylmethionine (SAM), S-adenosylhomocysteine (SAH), bicine, Tween20, dimethylsulfoxide (DMSO), bovine skin gelatin (BSG), isopropyl-β-D-thiogalactopyranoside (IPTG), and Tris(2-carboxyethyl)phosphine hydrochloride solution (TCEP) were purchased from Sigma-Aldrich at the highest level of purity possible. ^3H-SAM was purchase from American Radiolabeled Chemicals with a specific activity of 80 Ci/mmol. 384-well streptavidin Flashplates were purchased from PerkinElmer.
Substrates. Peptide representative of human histone H4 residues 31-45 was synthesized with an N-terminal linker-affinity tag motif and a C-terminal amide cap by 21st Century Biochemicals. The peptide was purified by high-performance liquid chromatography (HPLC) to greater than 95% purity and confirmed by liquid chromatography mass spectrometry (LC-MS). The sequence was Biot-Ahx-[…]-amide (SEQ ID NO.:8).
The resulting construct encodes an N-terminal GST tag and a thrombin cleavage sequence
Protein Expression. E. coli (BL21(DE3) Gold, Stratagene) made competent by the CaCl2 method were transformed with the PRMT8 construct and ampicillin selection. Protein over-expression was accomplished by growing the PRMT8 expressing E. coli clone and inducing expression with 0.3 mM IPTG at 16° C. The culture was grown for 12 hours, harvested by centrifugation, and stored at −80° C. for purification.
Protein Purification. […] GST-tagged PRMT8 was eluted with 50 mM Tris, 2 mM glutathione, pH 7.8. Pooled fractions were cleaved by thrombin (10 U) and dialysed in buffer A. GST was removed by reloading the cleaved protein sample onto glutathione sepharose column and PRMT8 was collected in the flow-through fractions. PRMT8 was purified further by ceramic hydroxyapatite chromatography. The column was washed with 50 mM phosphate buffer, 100 mM NaCl, 5% glycerol, 5 mM β-mercaptoethanol, pH 7.8 and PRMT8 was eluted by 100 mM phosphate in the same buffer. Protein was concentrated and buffer was exchanged to 50 mM Tris, 300 mM NaCl, 10% glycerol, 5 mM β-mercaptoethanol, pH 7.8 by ultrafiltration. The purity of recovered protein was 89%.
General Procedure for PRMT8 Enzyme Assays on Peptide Substrates. The assays were all performed in a buffer consisting of 20 mM Bicine (pH=7.6), 1 mM TCEP, 0.005% BSG, and 0.002% Tween 20, prepared on the day of use. Compounds in 100% DMSO (1 ul) were spotted into a polypropylene 384-well V-bottom plates (Greiner) using a Platemate Plus outfitted with a 384-channel head (Thermo Scientific). DMSO (1 ul) was added to Columns 11, 12, 23, 24, rows A-H for the maximum signal control and 1 ul of SAH, a known product and inhibitor of PRMT8, was added to columns 11, 12, 23, 24, rows I-P for the minimum signal control. A cocktail (40 ul) containing the PRMT8 enzyme was added by Multidrop Combi (Thermo-Fisher). The compounds were allowed to incubate with PRMT8 for 30 min at room temperature, then a cocktail (10 ul) containing ^3H-SAM and peptide was added to initiate the reaction (final volume=51 ul). The final concentrations of the components were as follows: PRMT8 was 1.5 nM, ^3H-SAM was 50 nM, non-radiolabeled SAM was 550 nM, peptide was 150 nM, SAH in the minimum signal control wells was 1 mM, and the DMSO concentration was 2%. The assays were stopped by the addition of non-radiolabeled SAM (10 ul) to a final concentration of 400 uM, which dilutes the ^3H-SAM to a level where its incorporation into the peptide substrate is no longer detectable. 50 ul of the reaction in the 384-well polypropylene plate was then transferred to a 384-well Flashplate and the biotinylated peptides were allowed to bind to the streptavidin surface for at least 1 hour before being washed once with 0.1% Tween20 in a Biotek EL×405 plate washer. […]

For experiment [1], the system named is RKO cells, mono-methyl arginine. The experiment is described as follows: RKO Methylation Assay (In Cell Western for mono-methyl arginine). Type of experiment: cell-based. The conditions noted are these: Homo sapiens. The source says: RKO adherent cells were purchased from ATCC (American Type Culture Collection), Manassas, Va., USA. DMEM/Glutamax medium, penicillin-streptomycin, heat inactivated fetal bovine serum, 0.05% trypsin and D-PBS were purchased from Life Technologies, Grand Island, N.Y., USA. Odyssey blocking buffer, 800CW goat anti-rabbit IgG (H+L) antibody, and Licor Odyssey infrared scanner were purchased from Licor Biosciences, Lincoln, Nebr., USA. Mono-methyl arginine antibody was purchased from Cell Signaling Technology, Danvers, Mass., USA. Methanol was purchased from VWR, Franklin, Mass., USA. 10% Tween 20 was purchased from KPL, Inc., Gaithersburg, Md., USA. DRAQ5 was purchased from Biostatus Limited, Leicestershire, UK.
RKO adherent cells were maintained in growth medium (DMEM/Glutamax medium supplemented with 10% v/v heat inactivated fetal bovine serum and 100 units/mL penicillin-streptomycin) and cultured at 37° C. under 5% CO2.
Cell Treatment, in Cell Western (ICW) for Detection of Mono-Methyl Arginine and DNA Content. […] Compound (100 nL) from a 96-well source plate was added directly to 384 well cell plate. Plates were incubated at 37° C., 5% CO2 for 72 hours. After three days of incubation, plates were brought to room temperature outside of the incubator for ten minutes and blotted on paper towels to remove cell media. 50 μL of ice cold 100% methanol was added directly to each well and incubated for 30 min at room temperature. After 30 min, plates were transferred to a Biotek EL406 plate washer and washed 2 times with 100 μL per well of wash buffer (1×PBS). Next 60 μL per well of Odyssey blocking buffer (Odyssey Buffer with 0.1% Tween 20 (v/v)) were added to each plate and incubated 1 hour at room temperature. Blocking buffer was removed and 20 μL per well of primary antibody was added (mono-methyl arginine diluted 1:200 in Odyssey buffer with 0.1% Tween 20 (v/v)) and plates were incubated overnight (16 hours) at 4° C. Plates were washed 5 times with 100 μL per well of wash buffer. […] The plates were washed 5 times with 100 μL per well wash buffer then 2 times with 100 μL per well of water. Plates were allowed to dry at room temperature then imaged on the Licor Odyssey machine which measures integrated intensity at 700 nm and 800 nm wavelengths. Both 700 and 800 channels were scanned.
Calculations: First, the ratio for each well was determined by:
Each plate included fourteen control wells of DMSO only treatment (minimum activation) as well as fourteen control wells for maximum activation treated with 20 μM of a reference compound. The average of the ratio values for each control type was calculated and used to determine the percent activation for each test well in the plate. Reference compound was serially diluted three-fold in DMSO for a total of nine test concentrations, beginning at 20 μM. Percent activation was determined and EC30 curves were generated using triplicate wells per concentration of compound.

Setting [2] is: biochemical evaluation, peptide substrate, read-out: PRMT8 IC50.
[3] abbreviates: single experiment or average of multiple experiments, read-out: PRMT8 biochemical evaluation (numerical).
Where [4] appears, read: In Cell Western EC30, RKO cells, 72 hours, single experiment or average of multiple experiments, read-out: RGG ICW.
The mark [5] stands for this setting: In Cell Western, RKO cells, 72 hours, read-out: RGG ICW EC30.

pIC50: −log10 of the molar value. Where two headings read alike, the source gives them in different places.

human PRMT8, sequence (Q9NR22 whole entry): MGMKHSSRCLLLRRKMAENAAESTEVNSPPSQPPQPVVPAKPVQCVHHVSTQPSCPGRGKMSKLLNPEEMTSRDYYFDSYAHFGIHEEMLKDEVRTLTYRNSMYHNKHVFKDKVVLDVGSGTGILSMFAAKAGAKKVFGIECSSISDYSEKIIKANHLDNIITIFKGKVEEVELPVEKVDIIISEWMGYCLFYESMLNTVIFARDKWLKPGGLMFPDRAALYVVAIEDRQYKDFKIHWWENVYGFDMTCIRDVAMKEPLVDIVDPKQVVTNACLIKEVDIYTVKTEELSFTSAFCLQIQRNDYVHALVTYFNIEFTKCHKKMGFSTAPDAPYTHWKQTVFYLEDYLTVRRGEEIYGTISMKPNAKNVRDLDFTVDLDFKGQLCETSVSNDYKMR

As to `CN(CCN)Cc1n[nH]c2ccc(OCc3ccccc3)cc12` [Compound 1B], the pIC50 on human PRMT8 (setting [2]) was 6.00 to 7.00; at human PRMT8 (setting [3]) it was 6.57. For the same molecule, the figures for the EC30 in experiment [1] (setting [4]) and in experiment [1] (setting [5]) were 1710 nM and below 3000 nM, respectively.
With `CC(C)COc1ccc2[nH]nc(CN(C)CCN)c2c1` [Compound 2, N1-((5-iso-butoxy-1H-indazol-3-yl)methyl)-N1-methylethane-1,2-diamine], the pIC50 on human PRMT8 (setting [2]) is 6.00 to 7.00; at human PRMT8 (setting [3]) it was 6.34. Moreover, the EC30 in experiment [1] (setting [4]) was 4210 nM; in experiment [1] (setting [5]) it was 3010 to 12000 nM.
For the molecule `CNCCN(C)Cc1n[nH]c2ccc(OCC(C)c3ccccc3)cc12` (stereo not shown) [Compound 19], the pIC50 at human PRMT8 (setting [2]) was above 7.00. Further, the EC30 in experiment [1] (setting [4]) is 680 nM; in experiment [1] (setting [5]) it was below 3000 nM.
Take `CNCCN(C)Cc1n[nH]c2ccc(OCc3ccn(C)n3)cc12` [Compound 20]: the pIC50 on human PRMT8 (setting [2]) was above 7.00. Besides, the EC30 was 710 nM in experiment [1] (RKO, 72 h, read-out: RGG ICW) and below 3000 nM in experiment [1] (RKO, 72 h, read-out: RGG ICW EC30).
Consider `CNCCN(C)Cc1n[nH]c2cccc(OCc3ccccc3)c12` [Compound 21], for which the values for the pIC50 on human PRMT8 (setting [2]) and on human PRMT8 (setting [3]) were above 7.00 and 7.17, respectively. For the same molecule, the EC30 in experiment [1] (setting [4]) was 912 nM; in experiment [1] (setting [5]) it was below 3000 nM.
Consider `CNCCN(C)Cc1n[nH]c2ccc(Oc3cccc(OC)c3)cc12` [Compound 22], for which the pIC50 on human PRMT8 (setting [3]) is 7.10. Besides, the EC30 in experiment [1] (setting [4]) is 1490 nM; in experiment [1] (setting [5]), below 3000 nM.
As to `CNCCN(C)Cc1n[nH]c2ccc(OCc3ccc(C(C)=O)cc3)cc12` [Compound 23], the pIC50 at human PRMT8 (setting [3]) is 7.37. For the same molecule, the EC30 in experiment [1] (setting [4]) is 1760 nM; in experiment [1] (setting [5]), below 3000 nM.
In the case of `CNCCN(C)Cc1n[nH]c2cccc(OCCC(C)C)c12` [Compound 31], the pIC50 on human PRMT8 (setting [2]) is 6.00 to 7.00. Moreover, the values for the EC30 in experiment [1] (setting [4]) and in experiment [1] (setting [5]) were 8240 nM and 3010 to 12000 nM, respectively.
Regarding `CNCCN(C)Cc1n[nH]c2ccc(OCc3ccn(CC(C)C)n3)cc12` [Compound 33], the figures for the pIC50 on human PRMT8 (setting [2]) and at human PRMT8 (setting [3]) were 5.52 to 6.00 and 6.56, respectively. Moreover, the EC30 in experiment [1] (setting [4]) is 9060 nM; in experiment [1] (setting [5]), 3010 to 12000 nM.
For the molecule `CNCCN(C)Cc1n[nH]c2ccc(OC)cc12` [Compound 35], the pIC50 at human PRMT8 (setting [3]) is 5.73. In addition, the values for the EC30 in experiment [1] (setting [4]) and in experiment [1] (setting [5]) were above 20000 nM and above 12000 nM, respectively.
Take `CNCCN(C)Cc1n[nH]c2cccc(OCCC(O)CO)c12` (stereo not shown) [Compound 40]: on human PRMT8 (setting [2]), the pIC50 is 5.52 to 6.00.
As to `CNCCN(C)Cc1n[nH]c2cccc(OCCCC(O)CO)c12` (stereo not shown) [Compound 41, 5-((3-((methyl(2-(methylamino)ethyl)amino)methyl)-1H-indazol-4-yl)oxy)pentane-1,2-diol], the pIC50 at human PRMT8 (setting [2]) is 5.52 to 6.00.
`CNCCN(C)Cc1n[nH]c2ccc(C(C)C)cc12` [Compound 42, N^1-((5-isopropyl-1H-indazol-3-yl)methyl)-N^1,N^2-dimethylethane-1,2-diamine]: the results for the pIC50 at human PRMT8 (setting [2]) and at human PRMT8 (setting [3]) were 6.00 to 7.00 and 5.54, respectively.
In the case of `CNCCN(C)Cc1n[nH]c2ccc(N3CCC4(CCCCC4)CC3)cc12` [Compound 43, N^1-((5-(3-azaspiro[5.5]undecan-3-yl)-1H-indazol-3-yl)methyl)-N^1,N^2-dimethylethane-1,2-diamine], the values for the pIC50 at human PRMT8 (setting [2]) and at human PRMT8 (setting [3]) were 6.00 to 7.00 and 5.70, respectively.
For `CNCCN(C)Cc1n[nH]c2ccc(C3CCOCC3)cc12` [Compound 44, N^1,N^2-dimethyl-N^1-((5-(tetrahydro-2H-pyran-4-yl)-1H-indazol-3-yl)methyl)ethane-1,2-diamine], the pIC50 at human PRMT8 (setting [2]) was above 7.00; at human PRMT8 (setting [3]), 6.63.
For `CNCCN(C)Cc1n[nH]c2ccc(C3=CCOCC3)cc12` [Compound 45], the values for the pIC50 on human PRMT8 (setting [2]) and at human PRMT8 (setting [3]) were above 7.00 and 6.87, respectively.
As to `CNCCN(C)Cc1n[nH]c2ccc(N3CCCCC3)cc12` [Compound 46, N^1,N^2-dimethyl-N^1-((5-(piperidin-1-yl)-1H-indazol-3-yl)methyl)ethane-1,2-diamine], the pIC50 on human PRMT8 (setting [2]) is above 7.00; on human PRMT8 (setting [3]), 7.01.
In the case of `CNCCN(C)Cc1n[nH]c2ccc(C3CCCCC3)cc12` [Compound 47, N^1-((5-cyclohexyl-1H-indazol-3-yl)methyl)-N^1,N^2-dimethylethane-1,2-diamine], the results for the pIC50 at human PRMT8 (setting [2]) and at human PRMT8 (setting [3]) were at least 7.00 and 7.04, respectively.
As for `CNCCN(C)Cc1n[nH]c2ccc(C3=CCCCC3)cc12` [Compound 48], the pIC50 on human PRMT8 (setting [2]) is at least 7.00; at human PRMT8 (setting [3]) it was 7.08.
For `CNCCN(C)Cc1n[nH]c2ccc(Oc3ccccc3C(F)(F)F)cc12` [Compound 49], at human PRMT8 (setting [3]), the pIC50 is 7.34.
Same read-out and setting: the result for `CNCCN(C)Cc1n[nH]c2ccc(OCC3CCOCC3)cc12` [Compound 50] reads 7.41.

These data come from patent US9765035B2 (priority 2013, dated 2017).
